For 29 compounds, inhibition, IC50 and melting point results are on record in patent publication US9737504B2, “Dihydroorotic and acid dehydrogenase inhibitor” (NAI INC., priority 2012, dated 2017).

The inhibition is the drop in the measured response relative to a control, in per cent. As usually defined, the IC50 is the point on the concentration scale where inhibition reaches its midpoint. One may read the melting point as the temperature of the solid-liquid transition.

Series [1] concerns the target T1, human DHOD (Homo sapiens, UniProt Q02127). In words: Measurement of DHOD inhibitory activity (DCIP reduction, end point assay). It is filed as biochemical. The conditions noted are these: for inhibition at 0.2 µM: read-out: DHOD inhibition rate (%) 200 nM, 200 nM compound; for IC50: read-out: IC50 (nM) human DHOD (HsDHOD). How it is done: The compounds of the present invention were used and measured for their DHOD inhibitory activity at concentrations of 200 nM and 1000 nM.
Reduction of DCIP was measured at 600 nm over 20 minutes.

Series [2] deals with T1, human DHOD. The description is as above. The conditions noted are these: read-out: DHOD inhibition rate (%) 100 nM; 100 nM compound. It counts as biochemical.

T1 sequence (Q02127 whole entry): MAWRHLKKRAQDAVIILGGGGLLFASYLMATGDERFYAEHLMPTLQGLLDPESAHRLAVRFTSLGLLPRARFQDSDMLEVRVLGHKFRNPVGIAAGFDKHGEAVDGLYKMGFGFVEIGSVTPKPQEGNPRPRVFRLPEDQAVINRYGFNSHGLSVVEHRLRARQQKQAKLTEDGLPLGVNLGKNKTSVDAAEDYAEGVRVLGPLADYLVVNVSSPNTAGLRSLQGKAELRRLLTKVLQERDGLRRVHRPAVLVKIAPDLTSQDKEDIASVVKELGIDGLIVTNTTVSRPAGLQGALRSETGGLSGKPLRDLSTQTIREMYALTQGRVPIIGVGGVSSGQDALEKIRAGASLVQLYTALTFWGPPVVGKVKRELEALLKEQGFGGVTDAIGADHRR

Take `C/C(=C\Cc1c(O)c(Cl)c(C)c(C=O)c1O)CC/C=C(\C)COC(=O)C(C)(C)C` [234-12-OPiv, (2E,6E)-8-(3-Chloro-5-formyl-2,6-dihydroxy-4-methylphenyl)-2,6-dimethyl-2,6-octadienyl pivalate]: at human DHOD [1], the inhibition at 0.2 µM was found to be 72% and the IC50 turned out to be 98 ± 5 nM. Further, the inhibition at 0.1 µM at human DHOD [2] amounted to 102%.
Take `COC(=O)c1cc(Cl)c(O)c(C/C=C(\C)CCC=C(C)C)c1O`: the melting point was determined as 71 °C.
For `Cc1c(Cl)c(O)c(CCCCCCCCCCCC(=O)O)c(O)c1C=O` [215-13-COOH, 12-(3-Chloro-5-formyl-2,6-dihydroxy-4-methylphenyl)dodecanoic acid], the melting point lay within 130 to 131 °C.
On the same count and under the same terms, then `C/C(=C\Cc1c(O)c(Cl)cc(C=O)c1O)CC/C=C(\C)C1CC(=O)C(C)(C)O1` (stereo not drawn) [compound 209, 5-Chloro-2,4-dihydroxy-3-[(2E,6E)-7-(5,5-dimethyl-4-oxotetrahydrofuran-2-yl)-3,7-dimethyl-2,6-heptadienyl]benzaldehyde], with 70 to 72 °C; and `Cc1c(Cl)c(O)c(CCCCCCCC(=O)O)c(O)c1C=O` [215-9-COOH, 8-(3-Chloro-5-formyl-2,6-dihydroxy-4-methylphenyl)octanoic acid], with 149 to 150 °C.
The same measure, in the same setting: as for `Cc1c(Cl)c(O)c(CCCCCCCCCOC(=O)C(C)(C)C)c(O)c1C=O` [215-13-OPiv, 9-(3-Chloro-5-formyl-2,6-dihydroxy-4-methylphenyl)nonyl pivalate], the figure is 62 °C.
The same measure, in the same setting: as for `Cc1c(Cl)c(O)c(CCCCCCCCCC(=O)OC(C)C)c(O)c1C=O` [215-13-COO^IPr, Isopropyl 10-(3-chloro-2,6-dihydroxy-5-formyl-4-methylphenyl)decanate], the figure is 49 °C.
As to `CCCCC/C(C)=C/Cc1c(O)c(Cl)c(C)c(C=O)c1O` [264-8, (E)-3-Chloro-4,6-dihydroxy-2-methyl-5-(3-methyl-2-octenyl)benzaldehyde], on human DHOD [1], the inhibition at 0.2 µM stood at 74% and the concentration for half-maximal inhibition (IC50) was found to be 71 ± 2 nM. Besides, the inhibition at 0.1 µM at human DHOD [2] amounted to 90%.
Compound `Cc1c(Cl)c(O)c(CCCCCCCCOC(=O)C(C)(C)C)c(O)c1C=O` [215-12-OPiv, 8-(3-Chloro-5-formyl-2,6-dihydroxy-4-methylphenyl)octyl pivalate] displayed a melting point of 70 to 71 °C.
On to `CC(C)=CCC/C(C)=C/Cc1c(O)cc(C)c(C=O)c1O` [compound 216, (E)-2,4-Dihydroxy-3-(3,7-dimethyl-2,6-octadienyl)-6-methylbenzaldehyde], for which the melting point is 120 to 121 °C.
The same measure, in the same setting: as for `Cc1c(Cl)c(O)c(CCCCCCCCCCCC(=O)OC(C)C)c(O)c1C=O` [215-15-COO^IPr, Isopropyl 12-(3-chloro-5-formyl-2,6-dihydroxy-4-methylphenyl)dodecanate], the figure is 82 to 83 °C.
For the compound `C/C(=C\Cc1c(O)c(Cl)c(C)c(C=O)c1O)CC/C=C/COC(=O)C(C)(C)C` [07-11-116-4], at human DHOD [1], the inhibition at 0.2 µM amounted to 57% and the IC50 is 146 ± 19 nM. In addition, the inhibition at 0.1 µM on human DHOD [2] came to 87%.
In the case of `CCC(=O)OCCCCCCC/C=C/c1c(O)c(Cl)c(C)c(C=O)c1O` [200-13-OCOEt, (E)-9-(3-Chloro-5-formyl-2,6-dihydroxy-4-methylphenyl)-8-nonenyl propionate], the melting point was 72 to 73 °C.
Compound `Cc1c(Cl)c(O)c(/C=C/CCCCCCCOC(=O)C(C)(C)C)c(O)c1C=O` [200-13-OPiv, (E)-9-(3-Chloro-5-formyl-2,6-dihydroxy-4-methylphenyl)-8-nonenyl pivalate] gave a melting point of 69 to 70 °C.
`CC(C)=CCC/C(C)=C/Cc1c(O)c(Cl)cc(C=O)c1O` [compound 224, (E)-5-Chloro-2,4-dihydroxy-3-(3,7-dimethyl-2,6-octadienyl)benzaldehyde]: the melting point is 94 to 95 °C.
Same read-out and setting: as for `COC(=O)CCCCCCCCCc1c(O)c(Cl)c(C)c(C=O)c1O` [215-12-COOMe, Methyl 10-(3-chloro-5-formyl-2,6-dihydroxy-4-methylphenyl)decanate], the figure is 87 to 88 °C; as for `COC(=O)c1c(C)cc(O)c(C/C=C(\C)CCC=C(C)C)c1O` [compound 146, Methyl (E)-3-(3,7-dimethyl-2,6-octadienyl)-2,4-dihydroxy-6-methylbenzoate], 46 to 47 °C; as for `Cc1c(Cl)c(O)c(/C=C/CCCCCCOC(=O)C(C)(C)C)c(O)c1C=O` [200-12-OPiv, (E)-8-(3-Chloro-5-formyl-2,6-dihydroxy-4-methylphenyl)-7-octenyl pivalate], 57 to 58 °C.
Still for that read-out and setting: then `COC(=O)c1ccc(O)c(C/C=C(\C)CCC=C(C)C)c1O` [compound 161, Methyl (E)-3-(3,7-dimethyl-2,6-octadienyl)-2,4-dihydroxybenzoate], with 62 °C.
For the compound `C/C(=C\COC(=O)C(C)(C)C)CC/C(C)=C/Cc1c(O)c(Cl)c(C)c(C=O)c1O` [287-12-OPiv, (2E,6E)-8-(3-Chloro-5-formyl-2,6-dihydroxy-4-methylphenyl)-3,6-dimethyl-2,6-octadienyl pivalate], on human DHOD [1], the inhibition at 0.2 µM is 82% and the half-inhibitory concentration (IC50) was determined as 67 ± 3 nM. Moreover, on human DHOD [2], the inhibition at 0.1 µM came out at 104%.
`CCC(=O)OCCCCCCCCc1c(O)c(Cl)c(C)c(C=O)c1O` [215-12-OCOEt, 8-(3-Chloro-5-formyl-2,6-dihydroxy-4-methylphenyl)octyl propionate] gave a melting point of 63 to 64 °C.
Take `CC(C)=CCC/C(C)=C/Cc1c(O)ccc(C=O)c1O` [compound 217, (E)-2,4-Dihydroxy-3-(3,7-dimethyl-2,6-octadienyl)benzaldehyde]: the melting point was found to be 85 °C.
On the same count and under the same terms, then `Cc1c(Cl)c(O)c(CCCCCCC(C)C)c(O)c1C=O` [279-8, 3-Chloro-4,6-dihydroxy-2-methyl-5-(7-methyloctyl)benzaldehyde], with 93 to 94 °C.
On to `COC(C)(C)CCC/C(C)=C/Cc1c(O)c(Cl)c(C)c(C=O)c1O` [231-9-OMe, 3-Chloro-4,6-dihydroxy-5-[(E)-7-methoxy-3,7-dimethyl-2-octeny]-2-methyl benzaldehyde], for which, at human DHOD [1], the inhibition at 0.2 µM came out at 75% and the IC50 turned out to be 67 ± 7 nM. The inhibition at 0.1 µM at human DHOD [2] stood at 98%.
For the compound `Cc1c(Cl)c(O)c(CCCCCCCCO)c(O)c1C=O` [215-9-OH, 5-Chloro-2,4-dihydroxy-3-(8-hydroxyoctyl)-6-methylbenzaldehyde], the melting point was in the range of 129 to 130 °C.
For `CCCCCC(C)CCc1c(O)c(Cl)c(C)c(C=O)c1O` (stereo not drawn) [265-8, 3-Chloro-4,6-dihydroxy-2-methyl-5-(3-methyloctyl)benzaldehyde], the melting point was in the range of 65 to 67 °C.
In the case of `Cc1c(Cl)c(O)c(CCCCCCCC2CC(=O)C(C)(C)O2)c(O)c1C=O` (stereo not drawn) [compound 250, 5-Chloro-2,4-dihydroxy-6-methyl-3-[7-(3,3-dimethyl-4-oxo-2-oxacyclopentyl)heptyl]benzaldehyde], the melting point is 70 to 71 °C.
Same read-out and setting: then `Cc1c(Cl)c(O)c(CCCCCCCOC(=O)C(C)(C)C)c(O)c1C=O` [215-11-OPiv, 7-(3-Chloro-5-formyl-2,6-dihydroxy-4-methylphenyl)heptyl pivalate], with 63 to 64 °C; and `C/C(=C\Cc1c(O)c(Cl)c(C)c(C=O)c1O)CC/C=C(\C)C1OC(C)C(C)O1` (stereo not drawn) [509-11, 3-Chloro-5-((2E,6E)-7-(4,5-dimethyl-1,3-dioxolan-2-yl)-3-methyl-2,6-octadienyl)-4,6-dihydroxy-2-methylbenzaldehyde], with 35 to 36 °C.
